Measurements taken from patent publication US10351530B2, “Arylcyclohexyl pyrazoles as NRF2 regulators” (GlaxoSmithKline Intellectual Property Development Limited, priority 2015, dated 2019).

Columns and labels:
NRF2/Keap1 = target: T1, NRF2/Keap1 (Homo sapiens, UniProt Q14145); test: NRF2-Keap1 TR-FRET Assay (full length NRF2 and full length Keap1); format: binding; conditions: 25 nM Keap1-FlagHis, 50 nM biotin-NRF2 added
T1 construct: full length NRF2 protein and full length Keap1 protein (Keap1 exists a dimer) are used
Description: In the NRF2-Keap1 TR-FRET (time-resolved fluorescence resonance energy transfer) assay, full length NRF2 protein and full length Keap1 protein (Keap1 exists a dimer) are used. The assay detects the ability of compound to displace the binding of FlagHis-tagged Keap1 with biotinylated, Avi-tagged NRF2 protein. Biotin-NRF2 binds to streptavidin-europium (a component of the detection mix) and Keap1-FlagHis is recognized by anti-Flag APC (allophycocyanin) antibody (also a component of the detection mix). If binding occurs between the two proteins, there will be an energy transfer from the Eu+3 (donor) at 615 nm to the APC (acceptor) at 665 nm. A potential Keap1 inhibitor will cause a reduction in the TR-FRET signal by interfering with the binding of Keap1 to NRF2.
One hundred nanoliters of 100× compound dose response curves (serial 3-fold dilutions) in DMSO are stamped using an Echo liquid handling system (Labcyte) into 384-well, low volume, black assay plates (Greiner, #784076), with DMSO in columns 6 and 18. The top concentration of compound is located in columns 1 and 13. All reagents are diluted in assay buffer (50 mM Tris, pH 8.0, 5 mM MgCl2, 100 mM NaCl, 0.005% BSA, 1 mM DTT, and 2 mM CHAPS). The BSA, DTT, and CHAPS are added to the assay buffer on the day of assay. Using a Multidrop Combi (Thermo Electron Corporation) equipped with a metal tip dispenser, 5 ul of 25 nM Keap1-FlagHis protein is added to all wells of the compound plate, with the exception of the wells in column 18. Wells in column 18 receive 5 ul of assay buffer instead. Plates are centrifuged at 500 rpm for 1 minute, covered with a plate lid, and incubated at 37° C. for 2.25 hours. Plates are then removed from the incubator and allowed to cool to RT for 15 minutes. Five microliters of 50 nM biotin-NRF2 protein is then added to all wells of the plates and the plates are spun at 500 rpm for 1 minute, followed by incubating at 4° C. for 1.25 hours. The plates are then allowed to warm to RT for 15 minutes, followed by the addition of 10 ul of detection mix (1 nM Streptavidin Eu+ W1024 and 5 ug/ml mouse anti-DYKDDDDK IgG conjugated to SureLight APC antibody; both from Columbia Biosciences) to all wells. Plates are spun at 500 rpm for 1 minute, incubated for 1 hour at RT, and read on an Envision plate reader using a 320 nm excitation filter and 615 nm and 665 nm emission filters. Compound response (% inhibition) and potency (pIC50) are calculated based on the ratio of the two emissions (665 nm/615 nm) and then the transformed data is normalized against controls in the assay (control 1=1% DMSO in the presence of NRF2 and Keap1 protein and control 2=1% DMSO in the absence of protein). Data analysis is handled using the software package Abase XE (Surrey, United Kingdom). The % inhibition values are calculated from the ratio (transformed) data by the equation: 100−(100*(compound response-average control 2)/(average control 1−average control 2)).
For calculation of pIC50s, Abase XE uses a four parameter equation.

[1] = tested on: NQO1 specific enzyme activity in BEAS-2B cells; test: BEAS-2B NQO1 MTT Assay; format: cell-based; conditions: NQO1 specific activity induction
Description: NAD(P)H:quinone oxidoreductase 1 (NQO1), also called DT diaphorase, is a homodimeric FAD-containing enzyme that catalyzes obligatory NAD(P)H-dependent two-electron reductions of quinones and protects cells against the toxic and neoplastic effects of free radicals and reactive oxygen species arising from one-electron reductions. The transcription of NQO1 is finely regulated by NRF2, and thus NQO1 activity is a good marker for NRF2 activation. On day one, frozen BEAS-2B cells (ATCC) are thawed in a water bath, counted, and re-suspended at a concentration of 250,000 cells/mL. Fifty microliters of cells are plated in 384 well black clear-bottomed plates. Plates are incubated at 37° C., 5% CO2 overnight. On day two, plates are centrifuged and 50 nL of compound or controls are added to the cells. Plates are then incubated at 37° C., 5% CO2 for 48 hours. On day four, medium is aspirated from the plate and crude cell lysates are made by adding 13 uL of 1× Cell Signaling Technologies lysis buffer with 1 Complete, Mini, EDTA-free Protease Inhibitor Tablet (Roche) for each 10 mL of lysis buffer. After lysis plates are incubated for 20 minutes at room temperature. Two microliters of lysate are removed for use in Cell Titer Glo assay (Promega) and MTT cocktail is prepared (Prochaska et. al. 1998) for measurement of NQO1 activity. Fifty microliters of MTT cocktail is added to each well, plate is centrifuged, and analyzed on an Envision plate reader (Perkin Elmer) using Absorbance 570 nm label for 30 minutes. Product formation is measured kinetically and the pEC50 of NQO1 specific activity induction is calculated by plotting the change in absorbance (Delta OD/min) versus the log of compound concentration followed by 3-parameter fitting.

Keap1/NRF2 = target: T2, Keap1/NRF2 (Homo sapiens, UniProt Q14145); test: NRF2-Keap1 FP Assay (Kelch domain (321-609) of Keap1, TAMRA-labeled NRF2 ETGE peptide); format: binding; conditions: Keap1 (321-609) 20 nM, Tamra labeled peptide 8 nM
T2 construct: Keap1 (321-609) is diluted to 40 nM (2×) in 1× assay buffer
Description: One model for the NRF2-Keap1 interaction is through two binding sites in the Neh2 domain on NRF2. The two sites are referred to as the DLG binding motif (latch domain, uM affinity) and the ETGE binding motif (hinge domain, nM affinity). The Keap1 protein consists of an N-terminal region (NTR), a broad complex, tramtrack, and brick a′ brac domain (BTB), an intervening region (IVR), a double glycine repeat domain (DGR or Kelch), and a C-terminal region. The DLG and ETGE motifs of NRF2's Neh2 domain bind to the Kelch domain of Keap1 at different affinities. In the Keap1 Kelch fluorescence polarization (FP) assay, a TAMRA-labeled 16 mer peptide (AFFAQLQLDEETGEFL) containing the ETGE motif of NRF2 and the Kelch domain (321-609) of Keap1 is used. The assay determines if a compound interferes with the binding between Keap1 […] and the TAMRA-labeled peptide. Binding of TAMRA-labeled NRF2 peptide to Keap1 (321-609) results in a high FP signal. If a compound interferes with the binding between the peptide and the protein, it will cause the assay signal to decrease. Thus, assay signal is inversely proportional to binding inhibition.
100 nl of 100× compound dose response curves (serial 3-fold dilutions) in DMSO are stamped using an Echo liquid handling system (Labcyte) into 384-well low volume black assay plates (Greiner, #784076), with DMSO in columns 6 and 18. The top concentration of compound is located in columns 1 and 13. Keap1 (321-609) is diluted to 40 nM (2×) in 1× assay buffer (50 mM Tris, pH 8.0, 100 mM NaCl, 5 mM MgCl2, 1 mM DTT, 2 mM CHAPS, and 0.005% BSA) and 5 ul is added using a Multidrop Combi (Thermo Electron Corporation) equipped with a metal tip dispenser to all wells of the compound plate, except column 18. Column 18 receives only 5 ul of assay buffer. Immediately, 5 uL of 16 nM (2×) of Tamra labeled peptide (AFFAQLQLDEETGEFL, 21st Century Biochemicals) is added to all wells of the plate. The plates are spun at 500 rpm for 1 min, incubated for 1 hr at room temperature, and read on an Analyst GT (Molecular Devices) equipped with excitation (530/25 nm) and emission (580/10 nm) filters designed for Tamra probes. A 561 nm dichroic mirror is also used in the Analyst. The final assay concentrations of Keap1 (321-609) and Tamra labeled peptide are 20 nM and 8 nM, respectively. Fluorescence measurements, represented as mP, are used in the transformation of the data. Compound activity is calculated based on percent inhibition, normalized against controls in the assay (Control 1 contains the Tamra peptide and Keap1 (321-609) together (0% response) and control 2 contains the Tamra peptide alone (100% response)). Data analysis is handled using the software package Abase XE (Surrey, United Kingdom. The % inhibition values are calculated by the equation: 100−(100*((compound response-average control 2)/(average control 1−average control 2))). For calculation of pIC50s, Abase XE uses a four parameter equation.

T1 sequence (Q14145 whole entry): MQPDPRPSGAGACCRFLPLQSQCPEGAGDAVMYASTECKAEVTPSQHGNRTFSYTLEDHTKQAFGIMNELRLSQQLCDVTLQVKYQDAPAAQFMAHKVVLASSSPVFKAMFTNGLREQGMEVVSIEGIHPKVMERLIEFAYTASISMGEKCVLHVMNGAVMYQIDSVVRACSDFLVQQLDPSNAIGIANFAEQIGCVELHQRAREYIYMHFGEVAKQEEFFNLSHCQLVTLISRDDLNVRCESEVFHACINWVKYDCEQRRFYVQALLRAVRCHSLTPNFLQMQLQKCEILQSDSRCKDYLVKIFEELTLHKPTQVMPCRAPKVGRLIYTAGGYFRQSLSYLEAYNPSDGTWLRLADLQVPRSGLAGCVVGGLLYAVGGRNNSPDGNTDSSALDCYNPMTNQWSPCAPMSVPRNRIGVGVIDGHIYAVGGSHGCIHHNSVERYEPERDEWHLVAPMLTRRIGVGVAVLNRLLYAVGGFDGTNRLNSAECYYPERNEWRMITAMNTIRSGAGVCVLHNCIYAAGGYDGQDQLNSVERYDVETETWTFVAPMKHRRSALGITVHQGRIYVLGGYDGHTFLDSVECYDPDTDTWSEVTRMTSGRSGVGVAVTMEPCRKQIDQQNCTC
T2 sequence (Q14145 321-609): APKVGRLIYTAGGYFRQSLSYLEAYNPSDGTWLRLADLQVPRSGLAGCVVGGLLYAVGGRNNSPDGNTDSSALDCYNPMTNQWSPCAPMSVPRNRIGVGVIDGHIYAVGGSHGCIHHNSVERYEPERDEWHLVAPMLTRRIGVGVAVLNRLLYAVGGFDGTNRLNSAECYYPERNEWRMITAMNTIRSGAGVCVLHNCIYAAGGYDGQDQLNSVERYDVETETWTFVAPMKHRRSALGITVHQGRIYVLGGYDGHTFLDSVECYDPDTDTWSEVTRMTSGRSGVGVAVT

Row | Compound | IC50 (NRF2/Keap1) [µM] | EC50 ([1]; Homo sapiens, BEAS-2B, 48 h) [µM] | IC50 (Keap1/NRF2) [nM] | EC50 ([1]; 48 hours) [µM]
1 | CC1(C)CCc2cnn([C@H]3CCC[C@@H](c4cccc(-n5ncc(C(=O)O)c5C5CC5)c4)C3)c21 (racemic) [Example 24, 5-Cyclopropyl-1-(3-(-3-(6,6-dimethyl-5,6-dihydrocyclopenta[c]pyrazol-1(4H)-yl)cyclohexyl)phenyl)-1H-pyrazole-4-carboxylic Acid] | 1 to 10 | 1 to 10 | 100 to 1000 | –
2 | CN(C(=O)C1CCCC(c2cccc(-n3ncc(C(=O)O)c3C3CC3)c2)C1)C1CCCCC1 (stereo not drawn) [Example 21, 1-(3-(3-(Cyclohexyl(methyl)carbamoyl)cyclohexyl)phenyl)-5-cyclopropyl-1H-pyrazole-4-carboxylic Acid] | 1 to 10 | 1 to 10 | 100 to 1000 | –
3 | O=C(O)c1cnn(-c2cccc(C3CCCC(n4ncc5c4CCCC5)C3)c2)c1C1CC1 (racemic) [Example 2, 5-Cyclopropyl-1-{3-[3-(4,5,6,7-tetrahydro-1H-indazol-1-yl)cyclohexyl]phenyl}-1H-pyrazole-4-carboxylic Acid] | 1 to 10 | 1 to 10 | 100 to 1000 | –
4 | CCCC1CCCCC1N(C)C(=O)C1CCCC(c2cccc(-n3ncc(C(=O)O)c3C3CC3)c2)C1 (stereo not drawn) [Example 22, 5-Cyclopropyl-1-(3-(3-(methyl(2-propylcyclohexyl)carbamoyl)cyclohexyl)phenyl)-1H-pyrazole-4-carboxylic Acid] | 1 to 10 | 1 to 10 | 100 to 1000 | –
5 | CCCC1CCc2cnn([C@@H]3CCC[C@H](c4cccc(-n5ncc(C(=O)O)c5C5CC5)c4)C3)c21 (mixture of isomers) [Example 16, 5-Cyclopropyl-1-[3-(3-{6-propyl-1H,4H,5H,6H-cyclopenta[c]pyrazol-1-yl}cyclohexyl)phenyl]-1H-pyrazole-4-carboxylic Acid] | 1 to 10 | 1 to 10 | 100 to 1000 | –
6 | O=C(O)c1cnn(-c2cccc(C3CCCC(C(=O)N4CCCC4C4CCC4)C3)c2)c1C1CC1 (racemic) [Example 13, 1-{3-[3-(2-cyclobutylpyrrolidine-1-carbonyl)cyclohexyl]phenyl}-5-cyclopropyl-1H-pyrazole-4-carboxylic Acid] | 0.1 to 1 | 1 to 10 | 10 to 100 | –
7 | CCOC[C@@H]1CCCN1C(=O)C1CCCC(c2cccc(-n3ncc(C(=O)O)c3C3CC3)c2)C1 (single isomer, unassigned) [Example 18h] | 1 to 10 | – | 1000 to 10000 | 1 to 10
8 | CCCC1CCCCN1C(=O)[C@H]1CCC[C@@H](c2cccc(-n3ncc(C(=O)O)c3C3CC3)c2)C1 (mixture of isomers) [Example 5, 5-Cyclopropyl-1-{3-[3-(2-propylpiperidine-1-carbonyl)cyclohexyl]phenyl}-1H-pyrazole-4-carboxylic Acid] | 1 to 10 | 1 to 10 | 100 to 1000 | –
9 | CC1CCN(C(=O)C2CCCC(c3cccc(-n4ncc(C(=O)O)c4C4CC4)c3)C2)C1 (racemic) [Example 25, 5-Cyclopropyl-1-{3-[3-(3-methyl-pyrrolidine-1-carbonyl)-cyclohexyl]-phenyl}-1H-pyrazole-4-carboxylic Acid] | 1 to 10 | 1 to 10 | 100 to 1000 | –
10 | O=C(O)c1cnn(-c2cccc([C@H]3CCC[C@@H](C(=O)N4CCCCC4)C3)c2)c1C1CC1 (racemic) [Example 3, 5-Cyclopropyl-1-{3-[3-(piperidine-1-carbonyl)cyclohexyl]phenyl}-1H-pyrazole-4-carboxylic Acid] | 1 to 10 | 1 to 10 | 100 to 1000 | –
11 | CCCCC1CCc2cnn([C@@H]3CCC[C@@H](c4cccc(-n5ncc(C(=O)O)c5C5CC5)c4)C3)c21 (stereo in doubt) [Example 37, 1-(3-((1,3-cis)-3-(6-Butyl-5,6-dihydrocyclopenta[c]pyrazol-1(4H)-yl)cyclohexyl)phenyl)-5-cyclopropyl-1H-pyrazole-4-carboxylic Acid] | 1 to 10 | – | 100 to 1000 | 1 to 10
12 | O=C(O)c1cnn(-c2cccc(C3CCC(n4ncc5c4CCC5)C3)c2)c1C1CC1 (mixture of isomers) [Example 10, 1-[3-(3-{1H,4H,5H,6H-cyclopenta[c]pyrazol-1-yl}cyclopentyl)phenyl]-5-cyclopropyl-1H-pyrazole-4-carboxylic Acid] | 10 to 100 | 1 to 10 | 100 to 1000 | –
